From patent US20200114012A1, “METHOD FOR PRODUCING A LIQUID COMPOSITION” (The University of Liverpool, priority 2017, published 2020)

Assay: Solubility of TDF in solvents and of TDF particulates in oils
Assay type: physicochemical
Conditions: dichloromethane
Description: Therefore methanol was used for the first solvent. TDF is not soluble in dichloromethane, which was used as the second solvent.
A selection of biocompatible natural oils were used to form liquid compositions. These oils were selected as the TDF particulates were insoluble in them and the oils could be dissolved into the mixed solvent system. The oils used were peanut oil, soy bean oil, sesame oil and safflower oil.

| Molecule | solubility in dichloromethane |
| --- | --- |
| CC(C)OC(=O)OCOP(=O)(CO[C@H](C)Cn1cnc2c(N)ncnc21)OCOC(=O)OC(C)C.O=C(O)/C=C/C(=O)O [TDF, tenofovir disoproxil fumerate] | not soluble |

Same assay, conditions: methanol, organic solvent or mixture

| Molecule | solubility [mg/mL] |
| --- | --- |
| CC(C)OC(=O)OCOP(=O)(CO[C@H](C)Cn1cnc2c(N)ncnc21)OCOC(=O)OC(C)C.O=C(O)/C=C/C(=O)O [TDF, tenofovir disoproxil fumerate] | ≤ 80 |

Assay: Precipitation of TDF particulates with stabiliser combinations (Example 5)
Assay type: physicochemical
Conditions: Stabiliser B combined with Stabiliser A AOT, procedure of Example 2
Protocol: 800 μL of the stabiliser-containing dichloromethane solution was pipetted into a 4 mL volume glass vial. 200 μL of TDF-containing methanol solution was rapidly pipetted into the same vial, which was then sealed and briefly shaken. A white, hazy suspension formed instantaneously. […] The TDF loading of the particulates was altered by changing the concentration of the methanol and dichloromethane solutions prior to mixing. It should be noted that this approach allows for different volumes of the TDF particulate suspensions to be produced simply by increasing the volumes added, so long as the 4:1 ratio of dichloromethane to methanol is maintained, this allows for fine control of the concentration of the TDF particles dispersed in the oil of the liquid composition.
Following the procedure described in Example 2, the following combinations of stabilisers were used to form TDF particulates (see table 7 below).

| Molecule | Successful Precipitation |
| --- | --- |
| propylene glycol monocaprylate (type I) [Capryol ™ PGMC] | Yes |
| polyoxyethylene (2) stearyl ether [Brij ™ S2] | Yes |
| propylene glycol monolaurate (type II) [Lauroglycol ™ 90] | Yes |
| polyoxyethylenesorbitan monopalmitate [Tween ™ 40] | Yes |
| CCCCC/C=C\C/C=C\CCCCCCCC(=O)OCC(O)CO (stereo not drawn) [Maisine ™ 35-1, glyceryl monolinoleate] | Yes |
| sorbitan oleate [Span ™ 80] | Yes |
| polyglyceryl-6 dioleate [Plurol ™ Olique] | Yes |
| polyglyceryl-3 diisostearate [Plurol ™ diisosteraque] | Yes |
| CCCCCCCC/C=C\CCCCCCCC(=O)OCC(O)CO (stereo not drawn) [Pecol ™, glycerol mono-oleate] | Yes |
| polyethylene glycol sorbitan monooleate [Tween ™ 80] | Yes |
| propylene glycol monopalmitostearate [Monosteol ™] | Yes |
| propylene glycol monocaprylate (type II) [Capryol ™ 90] | Yes |
| propylene glycol monolaurate (type I) [Lauroglycol ™ FCC] | Yes |
